Key:
[1] = Particle size, PdI and zeta potential of mRNA-encapsulating LNPs by dynamic light scattering (Experimental Example 2); format: physicochemical; conditions: mRNA-encapsulating LNP containing the cationic lipid
Protocol: An acidic buffer solution (total amount: 1080 µL) of nucleic acid was prepared by weighing 7.2 µg of mRNA solution (0.6 mg/mL) in a 5 mL tube and adding acidic malate buffer (20 mM, pH 3.0).
An acidic buffer solution of nucleic acid and an ethanol solution of lipid were each weighed in a syringe.
The particle size, PdI (Polydispersity Index), and zeta potential of the mRNA-encapsulating LNP prepared by the method of the above-mentioned 1 were measured by a dynamic light scattering method (Zetasizer Nano; Malvern).

liver [2] = assay: In vivo gene expression, luciferase luminescence in the liver after tail vein administration (Experimental Example 4); conditions: BALB/c mouse, mRNA 0.05 mg/kg
Protocol: LNP encapsulating mRNA that expresses luciferase (cationic lipid:DOPC:Chol:DMG-PEG2k = 52.5:7.5:40:1.5 (molar ratio)) was prepared by the method described in [Experimental Example 2], 1.
(§1) The prepared each mRNA-encapsulating LNP dispersion was administered from the tail vein of BALB/c mouse (male, 5-week-old). The dose of mRNA was set to 0.05 mg per 1 kg body weight of the mouse, and the dose of the mRNA-encapsulating LNP dispersion was set to 10 µL per 1 g body weight of the mouse. After 4.5 hr from the administration of the mRNA-encapsulating LNP dispersion, a PBS solution of D-luciferin potassium was administered into the abdominal cavity of the mouse. The dose of D-luciferin potassium was set to 3 mg per mouse, and the dose of the PBS solution of D-luciferin potassium was set to 200 µL per mouse. After 15 min from the administration of the PBS solution of D-luciferin potassium, the mouse was euthanized, and the liver was isolated. The luminescence in the liver was quantified using an in vivo imaging system (IVIS) with an exposure of 10 sec. The amount of luminescence in the liver was quantified by image analysis using Live Imaging software attached to IVIS. The amount of luminescence (photons/sec) was calculated from the acquired image and used as an index of gene expression activity. The cationic lipids used, the luminescence intensity in the liver, and the relative luminescence intensity (= luminescence intensity in the liver when cationic lipid of Example was used/luminescence intensity in the liver when cationic lipid of Comparative Example was used) are shown in Table 7-1 to Table 7-3. "E+0a" (a: integer) indicated in Table 7-1 to Table 7-3 means "10^a". For example, "3.94E+09" means "3.94×10^9". […]

mouse red blood cells = assay: Hemolysis activity (membrane fusion ability) at pH 7.4 and 5.5 (Experimental Example 5); format: cell-based, ICR mice; conditions: physiological pH (7.4); final lipid concentration 100 µM; Fig. 1
Protocol: LNPs encapsulating mRNA that expresses luciferase (cationic lipid:DOPC:Chol:DMG-PEG2k=52.5:7.5:40:1.5 (molar ratio)) were prepared using the method described in [Experimental Example 2] 1. As cationic lipid, the cationic lipid of Comparative Example, compound 9, compound 14, compound 27, compound 33, or compound 42 was used.
The collected blood was immediately mixed with 1.0 µL of heparin solution (5000 U/5 mL). About 9 mL of PBS was added to the blood to make the total volume 10 mL. The mixture was then mixed by inversion and centrifuged (4°C, 400 g, 10 min). The supernatant containing plasma components was removed using a Pasteur pipette. About 9 mL of PBS was added to the blood cell components to make the total volume 10 mL, and the mixture was centrifuged again. A similar washing procedure was repeated 4 times to obtain mouse red blood cells.
2, 4, 6, 8, and 10 µL of mouse red blood cells were weighed and diluted with PBS containing 1 w/v% Triton-X100. The entire diluted solution was transferred to a clear 96-well plate, and the absorbance at 545 nm was measured using a plate reader. A calibration curve was created using these samples, and the point where the absorbance reached 1 was determined as the amount of blood cells to be used in the hemolysis assay. Empty LNP solution was weighed into an Eppendorf tube and diluted with malic acid-PBS buffer (pH 5.5, pH 7.4), followed by addition of mouse red blood cells. The final lipid concentration was 100 µM at pH 7.4 and 33.3 µM at pH 5.5, and the final volume of the solution was 250 µL. Each tube was shaken at 1900 rpm for 15 min. Each sample was centrifuged under centrifugation conditions (4°C, 400 g, 5 min), and 100 µL of the supernatant was transferred to a clear 96-well plate and the absorbance at 545 nm was measured. Untreated red blood cells were used as the negative control. […] The hemolysis activity of each sample was calculated using the following formula: Hemolysis activity (%) = 100×(absorbance of each sample - absorbance of negative control)/(absorbance of positive control - absorbance of negative control).

liver [3] = assay: In vivo gene expression, luciferase luminescence in the liver after tail vein administration (Experimental Example 7); conditions: BALB/c mouse, mRNA 0.05 mg/kg
Protocol: LNP encapsulating mRNA that expresses luciferase (cationic lipid:DOPC:Chol:DMG-PEG2k = 52.5:7.5:40:1.5 (molar ratio)) was prepared by the method described in [Experimental Example 6], 1.
as §1, with “9.” for “7-1 to Table 7-3. "E+0a" (a: integer) indicated in Table 7-1 to Table 7-3 means "10^a".”

[4] = Measurement of Liposomal pKa (TNS fluorescence, LNP without nucleic acid); conditions: cationic lipid:DOPC:Chol = 52.5:7.5:40 (molar ratio) + DMG-PEG2k about 1.5 mol, pH at which the relative fluorescence intensity was 50%
Protocol: Lipid nano particles (LNP) without containing nucleic acid were used for the evaluation of Liposomal pKa.
To the obtained mixture was further added DMG-PEG2k (2 mM ethanol solution) in an amount of about 1.5 mol with respect to the total amount 100 mol of cationic lipid, DOPC, and Chol, and then ethanol was added to prepare an ethanol solution of the lipid (total amount: 360 µL).
An acidic malic acid buffer (20 mM, pH 3.0) (1080 µL) containing NaCl at a final concentration of 30 mM and an ethanol solution (360 µL) of lipid were each weighed in a syringe. Using an ultra high-speed nanomedicament producing apparatus NanoAssmblr (manufactured by Precision NanoSystems), LNP was prepared under the conditions of addition rate of acidic buffer solution: 3 mL/min, addition rate of ethanol solution of lipid: 1 mL/min, and syringe holder temperature: 25°C, and collected in a 15 mL tube. […]
20 mM Citrate buffer, sodium phosphate buffer, and tris HCl buffer, each containing NaCl at a final concentration of 150 mM and adjusted to various pHs within the range of pH 3.0 to 10.0, were prepared. […] The relative fluorescence intensity was calculated as a percentage, with the maximum value of the fluorescence intensity in each LNP being 100% and the minimum value being 0%.

[5] = dispersion in PBS, dynamic light scattering (Table 5-3)
[6] = liver luminescence relative to cationic lipid of Comparative Example

## CCCCCCCC/C=C\CCCCCCCC(=O)Oc1ccc(CC(=O)OCCC2CCN(CCSSCCN3CCC(CCOC(=O)Cc4ccc(OC(=O)CCCCCCC/C=C\CCCCCCCC)cc4)CC3)CC2)cc1 [Comparative Example, reference compound]
[1]; dispersion in PBS (Table 5-3)
  zeta potential (mV): -4.47 mV
[1]; [5]
  PdI: 0.099
  particle size (nm): 108.70 nm
Liver [2]; tail vein, 4.5 hr after administration, LNP cationic lipid:DOPC:Chol:DMG-PEG2k = 52.5:7.5:40:1.5, prepared as in Experimental Example 2
  amount of luminescence (photons/sec) in liver: 1.52E+09 photons/sec
Liver [2]; [6]
  relative amount of luminescence: 1.00
Mouse red blood cells
  hemolysis activity: did not exhibit hemolysis activity
Liver [3]; tail vein, 4.5 hr after administration, LNP cationic lipid:DOPC:Chol:DMG-PEG2k = 52.5:7.5:40:1.5, prepared as in Experimental Example 6
  amount of luminescence (photons/sec) in liver: 2.05E+09 photons/sec
Liver [3]; [6]
  relative amount of luminescence: 1.00
[4]
  Liposomal pKa: 6.50

From patent EP4692059A1, “CATIONIC LIPID HAVING DISULFIDE BOND” (Tohoku University, priority 2023, dated 2024)
